Columns and labels:
[1] = target: T1, LINE1 reverse transcriptase (Homo sapiens, UniProt O00370); experiment: Stable artificial-intron Cis LINE1 reporter assay (HeLa Tet-On 3G, Firefly luciferase); type: cell-based; settings: HeLa L1 artificial-intron reporter cells, doxycycline 500 ng/mL, 72 h, class symbols
T1 construct: expressed in transfected cells; host or cells: HeLa Tet-On 3G (Takara, cat no 631183)
How it was run: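 HeLa Tet-On 3G clone stably carrying a bi-directional doxycycline-inducible artificial-intron LINE1 reporter, plated at 8,000 cells/well onto serially diluted compound. Expression induced with 500 ng/mL doxycycline (final); Firefly luciferase luminescence (Dual-Glo) read 72 h after plating as LINE1 activity.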

human PBMC = experiment: Decitabine-stimulated human PBMC assay (IFN-β, cell viability); type: cell-based; settings: anti-CD3/anti-CD28, decitabine 10 μM, 5 days
Procedure: EasySep buffer (32 mL, […] Technologies, cat. #20144) was used to dilute 8 mL of LRSC buffy coat (from fresh Leukopak) with gentle mixing. The diluted buffy coat (20 mL) was transferred into each of two SepMate 50 tubes, and the tubes were filled with 15 mL of Lyphoprep ([…], cat. #07851) density gradient. The SepMate tubes were then centrifuged at 1200G for 10 minutes at room temperature with the brake on. The top layer of supernatant was collected in SepMate tubes by quickly pouring it into a new 50 mL conical tube. The PBMCs were washed with EasySep buffer ×2 by centrifuging at 300G for 5 minutes. The cells were resuspended in 30 mL of EasySep and centrifuged at 100G for 5 minutes with the brake off, and the platelets were removed. The cells were then resuspended in 6 mL of 1×RBC lysis buffer (Invitrogen) and incubated at 37° C. for 5 minutes. 25 mL of EasySep buffer was then mixed into the tube and centrifuged at 300G for 5 minutes. The cells were resuspended in 10 mL of EasySep buffer and the cells were then counted with Cellometer (AO/PI). The PBMCs were resuspended in RPMI1640 (ThermoFisher)^+10% FBS (HyClone)^+μ/s at 3×10^6/mL. The PBMCs (100 μL, 300 k PBMCs) were then seeded in a 96-well flat bottom microplate (Corning) that had been precoated with 100 μL of anti-CD3 antibody (10 μg/mL in PBS, Biolegend) or PBS at 4° C., one day before the assay was commenced.
To each well the following solutions were added 1) 100 μL of cells (final cell number per well is 3×10^5 cell/well); 2) 25 μL of anti-CD28 antibody at 6×(5 μg/mL final concentration, Biolegend); 3) 25 μL of decitabine at 6×(10 μM final concentration); and 4) Compound in DMSO was dispensed directly into each well with a d300e digital dispenser (Tecan). The final concentration of DMSO for each well was normalized to 0.3%. The plate was incubated at 37° C. without any agitation for 5 days. Samples were collected 120 hours after incubation to determine IFN-0 and IL-2 levels using a U-PLEX Human IFN-β Assay Sector (5PL) (MSD, cat. #K151VIK-2).
After 5 days, the plate was spun down at 100×G for 5 minutes. Supernatants (100 μL) were collected for interferon β(IFN-β) analysis using the MSD assay noted above, and any residual supernatant was stored at −80° C.

[2] = test system: interferon-stimulated gene (ISG) response; experiment: In vivo decitabine challenge model in C57BL/6 mice (ISG response); parameters: species or system mouse; settings: decitabine i.p. 5 mg/kg
Procedure: Exemplary compounds were tested for ability to alter the interferon-stimulated gene (ISG) response in C57BL/6 mice treated with decitabine. Assay procedures and results are described below. Twenty 9-11 week old C57BL/6 mice were acclimated to the lab for at least 5 days. Compound 23 was prepared in a 0.5% methylcellulose solution for p.o. administration. Decitabine (Sigma-Aldrich) was dissolved in sterile PBS (pH 7.4) and dosed within 30 minutes of preparation of the solution. Doses of both the compound and decitabine were administered once a day, every day from Day 0 to Day 4. On Day 0, mice were split into five groups of five mice and given their first dose of decitabine (i.p., 5 mg/kg) and compound 23. Dosing groups were: Decitabine and compound 23 were administered daily from Day 0 to Day 4. All mice were euthanized 1 hour after the last dose administration on Day 4. Spleens, liver, and terminal colon were collected, along with plasma from each animal. The fold changes in interferon-stimulated gene (ISG) expression was calculated by first normalizing to GAPDH gene using the Delta CT method. The CT (gene of interest)—CT (reference gene) was calculated to generate a delta CT for all samples. The fold change was then calculated by taking the Log2(Delta CT(control)—Delta CT (experimental). The control in this example was the PBS control animal group. The Taqman duplex assay was used to determine levels of GAPDH v. IFIT2. Twenty 9-11 week old C57BL/6 mice were acclimated to the lab for at least 5 days. Compound 2 was prepared in 20% PEG400 in PBS (final pH 4.5) for p.o. administration. Decitabine (Sigma) was dissolved in sterile PBS (pH 7.4) and dosed within 30 minutes of preparation of the solution. Doses of both Compound 2 and decitabine were administered once a day. On Day 0, mice were split into five groups of five mice and given their first dose of decitabine and Compound 2. […] The fold changes in interferon-stimulated gene (ISG, specifically IRF7 and MX1) expression was calculated by first normalizing to GAPDH gene using the Delta CT method. […]

T1 sequence (O00370 whole entry, looked up): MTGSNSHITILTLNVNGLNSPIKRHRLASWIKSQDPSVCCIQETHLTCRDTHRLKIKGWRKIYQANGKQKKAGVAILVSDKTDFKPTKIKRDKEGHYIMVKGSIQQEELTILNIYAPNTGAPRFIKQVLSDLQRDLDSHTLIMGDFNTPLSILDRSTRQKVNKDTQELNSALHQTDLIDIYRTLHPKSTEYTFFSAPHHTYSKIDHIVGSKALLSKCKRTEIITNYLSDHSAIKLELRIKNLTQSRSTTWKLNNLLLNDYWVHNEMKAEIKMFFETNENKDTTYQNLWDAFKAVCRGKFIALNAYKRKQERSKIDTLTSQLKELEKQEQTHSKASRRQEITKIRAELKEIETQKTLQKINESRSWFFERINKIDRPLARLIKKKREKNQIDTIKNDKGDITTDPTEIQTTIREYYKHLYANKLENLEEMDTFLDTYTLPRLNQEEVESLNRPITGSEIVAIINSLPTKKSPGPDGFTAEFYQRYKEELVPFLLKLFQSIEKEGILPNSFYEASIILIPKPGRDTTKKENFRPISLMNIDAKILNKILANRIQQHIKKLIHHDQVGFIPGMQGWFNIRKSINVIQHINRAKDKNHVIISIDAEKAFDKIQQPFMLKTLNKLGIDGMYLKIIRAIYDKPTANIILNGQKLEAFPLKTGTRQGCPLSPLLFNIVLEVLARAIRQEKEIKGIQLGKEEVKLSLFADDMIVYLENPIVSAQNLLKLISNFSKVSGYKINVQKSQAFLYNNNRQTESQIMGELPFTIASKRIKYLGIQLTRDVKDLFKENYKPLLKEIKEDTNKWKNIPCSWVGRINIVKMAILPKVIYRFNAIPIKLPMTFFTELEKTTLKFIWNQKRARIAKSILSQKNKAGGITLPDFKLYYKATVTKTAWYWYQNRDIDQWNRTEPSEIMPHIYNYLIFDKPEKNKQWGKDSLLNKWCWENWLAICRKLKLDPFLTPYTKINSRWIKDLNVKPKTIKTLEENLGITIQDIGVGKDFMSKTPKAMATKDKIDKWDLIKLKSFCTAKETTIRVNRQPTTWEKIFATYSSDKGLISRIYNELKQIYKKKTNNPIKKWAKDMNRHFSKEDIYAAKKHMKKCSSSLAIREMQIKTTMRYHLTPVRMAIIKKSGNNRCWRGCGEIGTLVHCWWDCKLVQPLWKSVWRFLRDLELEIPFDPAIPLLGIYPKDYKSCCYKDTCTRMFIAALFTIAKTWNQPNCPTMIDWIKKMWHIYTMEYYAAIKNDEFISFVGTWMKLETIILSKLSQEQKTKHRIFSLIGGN

SMILES: Nc1ccn([C@H]2C[C@H](O)[C@](CO)(CCl)O2)c(=O)n1 [Compound 2, 4-amino-1-((2R,4S,5R)-5-(chloromethyl)-4-hydroxy-5-(hydroxymethyl)tetrahydrofuran-2-yl)pyrimidin-2(1H)-one]
- IC50 [1]: ≤ 50 nM
- IFN-β level (human PBMC): inhibition of IFN-0
- change in interferon-stimulated gene (ISG) response (FIG. 2A) ([2]; compound p.o. 0.6, 2.0, 6.0 mg/kg daily Day 0 to Day 4, IFIT2 v. GAPDH): change in ISG response
- change in interferon-stimulated gene (ISG) response (FIGS. 2B and 2C) ([2]; compound p.o. 1, 10, 100 mg/kg daily, kidneys, IRF7 and MX1): change in the ISG response

From patent publication US20230295212A1 (ROME Therapeutics, Inc., priority 2022, published 2023)
